SMILES strings stand for the structures.

In experiment [1] the target is T1, GluN1/GluN3A receptors (UniProt Q05586+Q9R1M7). Kind of experiment: Whole-cell patch-clamp recording on GluN1/GluN3A Flp-in T-REx 293 stable cell lines. The class given is cell-based, human GluN1-1a, rat GluN3A. Details: expressed in transfected cells. The protocol: (§1) To establish GluN1/GluN3A stable cell lines, the human GluN1-1a (GenBank: NP_015566.1) and the rat GluN3A (GenBank: NP_612555.1) genes were subcloned into the pcDNA5-FRT-To and pcDNA3.1 vectors, respectively. An EGFP tag was added to the C-terminus of GluN1 or GluN3A using a T2A linker for identification of transfected cells during transient transfection. Point mutations were introduced by site-directed mutagenesis using PrimeSTAR (Takara). The human GluN2A (GenBank: NP_000824.1) gene was subcloned into the pcDNA3.1 vector. The chimeras GluN3A^670-673 MWPL/LEPF and GluN2A^550-553 LEPF/MWPL were generated using In-Fusion HD Cloning kits (Takara). All constructs were confirmed by DNA sequencing (Beijing Genomics Institute).
T1 sequence (Q9R1M7 24-1135, other chains not shown): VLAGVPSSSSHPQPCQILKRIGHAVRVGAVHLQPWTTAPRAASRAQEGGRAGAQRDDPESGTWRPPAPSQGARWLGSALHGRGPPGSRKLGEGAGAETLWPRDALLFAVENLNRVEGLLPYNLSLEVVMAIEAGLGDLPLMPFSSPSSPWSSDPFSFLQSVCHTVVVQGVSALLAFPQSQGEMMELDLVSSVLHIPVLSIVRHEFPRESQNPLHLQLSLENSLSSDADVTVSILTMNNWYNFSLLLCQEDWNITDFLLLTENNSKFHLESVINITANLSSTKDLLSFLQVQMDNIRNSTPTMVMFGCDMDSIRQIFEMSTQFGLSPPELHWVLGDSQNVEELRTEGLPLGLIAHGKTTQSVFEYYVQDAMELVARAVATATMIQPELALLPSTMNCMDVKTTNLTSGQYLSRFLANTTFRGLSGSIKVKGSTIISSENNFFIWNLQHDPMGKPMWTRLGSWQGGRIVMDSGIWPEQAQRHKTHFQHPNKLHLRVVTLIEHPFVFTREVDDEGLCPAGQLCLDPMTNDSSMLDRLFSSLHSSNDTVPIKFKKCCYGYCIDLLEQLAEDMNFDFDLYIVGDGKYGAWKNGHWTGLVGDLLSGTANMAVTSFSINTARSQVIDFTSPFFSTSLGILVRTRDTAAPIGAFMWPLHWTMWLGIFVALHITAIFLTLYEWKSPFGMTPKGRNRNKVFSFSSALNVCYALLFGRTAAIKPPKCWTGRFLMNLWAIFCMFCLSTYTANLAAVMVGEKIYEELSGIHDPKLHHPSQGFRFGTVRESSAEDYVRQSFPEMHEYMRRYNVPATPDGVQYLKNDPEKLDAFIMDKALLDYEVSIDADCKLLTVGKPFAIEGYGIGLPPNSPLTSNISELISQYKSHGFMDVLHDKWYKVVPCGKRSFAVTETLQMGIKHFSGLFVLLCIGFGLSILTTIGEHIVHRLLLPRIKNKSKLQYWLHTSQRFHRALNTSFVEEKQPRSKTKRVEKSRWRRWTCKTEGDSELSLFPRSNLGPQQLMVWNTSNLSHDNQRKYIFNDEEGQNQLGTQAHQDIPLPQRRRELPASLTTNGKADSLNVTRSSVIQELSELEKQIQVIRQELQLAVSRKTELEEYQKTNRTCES
(§2) The Flp-in T-Rex 293 cell lines (Invitrogen), stably expressing GluN1/GluN3A were grown in DMEM basal medium (Gibco) supplemented with 10% fetal bovine serum (FBS, Invitrogen), 15 μg/ml blasticidin S (Invitrogen), 50 μg/ml hygromycin B (Invitrogen) and 500 μg/ml G418 (Gibco). Expression in cell lines was induced with 1 μg/ml doxycycline (Invitrogen) 24–28 h prior to the experiments. Chinese hamster ovary (CHO) cells were grown in DMEM-F12 basal medium (Gibco) supplemented with 10% FBS. In the study on the action sites of WZB117, all whole-cell patch-clamp recordings were performed on CHO cells. The transfections were carried out using Lipofectamine 3000 transfection reagent (Thermo Fisher) according to the manufacturer’s instructions. All cells mentioned above were cultured in a 5% CO2 incubator at 37°C and passaged every other day at a ratio of 1:3.
Whole-cell patch-clamp recordings were performed at room temperature (22–25°C) using an EPC-10 amplifier and Patch Master Software (HEKA). Pipettes were pulled from borosilicate glass capillaries (World Precision Instruments), and the resistances were 3–5 MΩ when filled with the intracellular solution. The extracellular solution contained (in mM): 140 NaCl, 2.8 KCl, 1 CaCl2, 10 HEPES and 20 sucrose (290–300 mOsm), pH adjusted to 7.3 using NaOH. The pipette solution contained (in mM): 115 CsF, 10 CsCl, 10 HEPES and 10 BAPTA (280–290 mOsm), pH adjusted to 7.2 using CsOH ([Grand et al., 2018]). When recording in hippocampal neurons, the extracellular solution contained (in mM): 140 NaCl, 5 KCl, 1 CaCl2, 1.25 MgCl2, 10 glucose, and 10 HEPES, and the pH was adjusted to 7.4 using NaOH, and the pipette solution contained (in mM): 140 KCl, 1 MgCl2, 10 EGTA, and 10 HEPES, and the pH was adjusted to 7.2 using KOH ([Xie et al., 2020]). Drug-containing solutions were applied through an RSC-200 Rapid Solution Changer with a 9-tube head (BioLogic Co., France), in which the cell is positioned close to the output of a capillary. The solution, containing either one drug or a combination of different drugs, to be assayed flows out of the capillary at a moderate flow rate by gravity. The lifted cell, exposed to this stream, rapidly equilibrates in the perfusion solution. Whole-cell patch-clamp recordings in heterologous cells and hippocampal neurons were performed at a holding potential of −60 mV. Currents were sampled at 10 kHz and low pass filtered at 2.9 kHz. To record the native GluN1/GluN3 receptor-mediated currents, the extracellular solution was supplemented with 10 μM bicuculline (Sigma-Aldrich), 2 μM NBQX (Topscience), 100 μM D-APV (MCE), and 50 μM strychnine (UHN Shanghai) to block γ-aminobutyric acid type A (GABAA), α-amino-3-hydroxy-5-methylisoxazole-4-propionate (AMPA), GluN1/GluN2 NMDA and glycine receptors, respectively. To record the native GluN2-NMDARs-mediated currents, 10 μM bicuculline and 2 μM NBQX were added into the extracellular solution to block GABAA receptors and AMPA receptors, respectively ([Grand et al., 2018]; [Otsu et al., 2019]; [Zhu et al., 2020]).
Patch-clamp data were processed using Clampfit 10.4 (Molecular Device, Sunnyvale, CA, United States) and analyzed with GraphPad Prism 5.0 (GraphPad Software, San Diego, CA, United States). […]

The target in experiment [2] is T1, GluN1/GluN3A receptors. Kind of experiment: TEVC recording in Xenopus oocytes expressing GluN1/GluN3A. Details: expressed in transfected cells; host or cells: Xenopus oocytes (cDNA/cRNA injection). To be noted: 30 μM WZB117, Xenopus oocytes. The class given is cell-based. How it is done: Two-electrode voltage-clamp (TEVC) recordings were performed on Xenopus oocytes expressing various subtypes of recombinant NMDARs. Each oocyte was injected with a mixture of 0.5–1.0 ng cDNAs or cRNAs encoding wild-type (WT) or mutant GluN1 (GluN1-1a or GluN1-4a) and GluN2 (2A-2D) or GluN3 (3A-3B) at a ratio of 1:1. The mutant GluN1-4a ^F484A/T518L was injected together with GluN3B to boost the currents of GluN1/GluN3B receptors, and WT GluN1-1a was used unless otherwise stated. The cRNAs of GluN1-4a, GluN3A and GluN3B were transcribed from corresponding DNAs using the mMESSAGE mMACHINE T7 Ultra kit (Life Technologies) according to the manufacturer’s instructions, and the others not specified were cDNAs. TEVC recording was performed 24–72 h post injection in extracellular solution containing (in mM): 100 NaCl, 0.3 BaCl2, 2.5 KCl, 0.01 DTPA and 5 HEPES, and the pH was adjusted to 7.3 using NaOH. All recordings were carried out at a holding potential of −60 mV.

Experiment [3] deals with T2, chimera GluN1/GluN2A^550-553 LEPF/MWPL (Homo sapiens, UniProt Q05586+Q12879, E551W/F553L/L550M).
T2 construct: expressed in transfected cells; host or cells: CHO, transient
T2 sequence (Q12879 23-1464 L550M/E551W/F553L, other chains not shown): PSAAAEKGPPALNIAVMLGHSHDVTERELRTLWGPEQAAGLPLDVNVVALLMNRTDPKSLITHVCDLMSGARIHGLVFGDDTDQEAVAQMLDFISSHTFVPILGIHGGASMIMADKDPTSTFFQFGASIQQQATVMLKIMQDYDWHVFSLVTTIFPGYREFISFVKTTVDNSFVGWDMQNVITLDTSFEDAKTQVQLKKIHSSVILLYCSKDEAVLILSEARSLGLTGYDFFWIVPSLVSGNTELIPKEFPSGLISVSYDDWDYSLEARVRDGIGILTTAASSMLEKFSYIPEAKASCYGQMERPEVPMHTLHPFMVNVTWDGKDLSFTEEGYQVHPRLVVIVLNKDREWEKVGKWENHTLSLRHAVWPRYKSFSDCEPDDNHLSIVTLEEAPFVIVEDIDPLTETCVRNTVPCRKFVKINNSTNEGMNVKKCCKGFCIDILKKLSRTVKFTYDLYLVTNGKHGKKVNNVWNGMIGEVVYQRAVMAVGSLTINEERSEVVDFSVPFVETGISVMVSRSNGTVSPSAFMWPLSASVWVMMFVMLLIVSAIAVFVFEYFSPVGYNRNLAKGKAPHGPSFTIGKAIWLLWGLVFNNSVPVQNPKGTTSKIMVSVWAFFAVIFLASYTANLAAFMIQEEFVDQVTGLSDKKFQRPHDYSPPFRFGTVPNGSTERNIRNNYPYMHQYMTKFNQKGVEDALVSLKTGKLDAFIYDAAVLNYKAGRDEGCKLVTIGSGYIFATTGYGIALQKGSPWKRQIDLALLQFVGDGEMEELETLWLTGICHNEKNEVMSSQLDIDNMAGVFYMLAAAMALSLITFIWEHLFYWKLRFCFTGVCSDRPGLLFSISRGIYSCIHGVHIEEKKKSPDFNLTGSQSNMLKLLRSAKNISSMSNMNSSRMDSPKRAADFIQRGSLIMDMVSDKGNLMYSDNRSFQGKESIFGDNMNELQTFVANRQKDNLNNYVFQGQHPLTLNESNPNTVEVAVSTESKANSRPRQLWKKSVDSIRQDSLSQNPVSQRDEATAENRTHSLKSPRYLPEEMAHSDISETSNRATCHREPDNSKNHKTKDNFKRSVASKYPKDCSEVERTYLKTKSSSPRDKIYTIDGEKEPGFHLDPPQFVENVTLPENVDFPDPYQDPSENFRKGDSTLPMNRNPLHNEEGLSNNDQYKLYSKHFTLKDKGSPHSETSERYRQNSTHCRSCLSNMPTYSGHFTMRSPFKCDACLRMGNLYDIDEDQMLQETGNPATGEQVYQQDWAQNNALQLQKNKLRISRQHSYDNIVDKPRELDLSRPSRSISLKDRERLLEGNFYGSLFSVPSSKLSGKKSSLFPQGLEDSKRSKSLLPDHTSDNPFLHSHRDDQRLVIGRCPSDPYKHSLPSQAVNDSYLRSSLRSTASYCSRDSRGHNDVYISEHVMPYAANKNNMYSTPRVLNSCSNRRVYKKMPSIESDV
Kind of experiment: Whole-cell patch-clamp on transiently transfected CHO cells, GluN2A chimera. The class given is cell-based. The protocol: as §1
as §2, with “The transfections were carried out using Lipofectamine 3000 transfection reagent (Thermo Fisher) according to the manufacturer’s instructions. All cells mentioned above were cultured in a 5% CO2 incubator at 37°C and passaged every other day at a ratio of 1:3.” left out

Experiment [4] addresses T3, chimera GluN3A^670-673 MWPL/LEPF (UniProt Q05586+Q9R1M7, L673F/M670L/W671E).
T3 construct: expressed in transfected cells; host or cells: CHO, transient
Kind of experiment: Whole-cell patch-clamp on transiently transfected CHO cells, GluN3A chimera. The class given is cell-based. The protocol: as §1
as §2, with “The transfections were carried out using Lipofectamine 3000 transfection reagent (Thermo Fisher) according to the manufacturer’s instructions. All cells mentioned above were cultured in a 5% CO2 incubator at 37°C and passaged every other day at a ratio of 1:3.” left out

The subject of experiment [5] is GluN1/GluN3A with mutations W671A and L673A of the GluN3A subunit. Nature of the experiment: Whole-cell patch-clamp on transiently transfected CHO cells, GluN3A pre-M1 alanine mutants. The experiment is classed as cell-based. The protocol:
as §1
as §2, with “The transfections were carried out using Lipofectamine 3000 transfection reagent (Thermo Fisher) according to the manufacturer’s instructions. All cells mentioned above were cultured in a 5% CO2 incubator at 37°C and passaged every other day at a ratio of 1:3.” left out

T3 sequence (Q9R1M7 24-1135 M670L/W671E/L673F, other chains not shown): as the sequence (Q9R1M7 24-1135, other chains not shown) above, with M647L, W648E, L650F counted along it

As to `O=C(Oc1cccc(F)c1OC(=O)c1cccc(O)c1)c1cccc(O)c1` [WZB117, 3-fluoro-1,2-phenylene bis(3-hydroxybenzoate)], the IC50 on GluN1/GluN3A receptors [1] (10 μM glycine) was found to be 1.08 ± 0.31 µM; at GluN1/GluN3A receptors [1] (100 μM glycine, pH 7.3, holding potential −60 mV) it was 1.15 ± 0.34 µM. In addition, the remaining activity at 3 µM at GluN1/GluN3A receptors [1] (Flp-In-T-REx-293, read-out: I drug/I control) is 8 ± 2%. Besides, the inhibition of currents entry against GluN1/GluN3A receptors [2] was “potently suppressed”. Also, the sensitivity of chimera result in experiment [3] was “acquired higher sensitivity”. Besides, the inhibition on chimera result in experiment [4] was “greatly reduced”. Also, the “influence of mutations on inhibitory effect” value in experiment [5] is “significantly influenced the inhibitory effect”.

The values are drawn from PMC9218946, “Identification of a Subtype-Selective Allosteric Inhibitor of GluN1/GluN3 NMDA Receptors” (Frontiers in Pharmacology, 2022).
